Assay results from PMC11678162 (Pharmaceutics, 2024).
Blank lines part the entries; values can stand above or below the compound they belong to. Bridge positions count the residues as written; N and C are the ends. Square brackets hold non-standard residues; d marks the D form. Peptide text beside a SMILES is read from it. pGlu = O=C1CC[C@@H](C(=O)O)N1

How the values were obtained:
serum = conditions: cited from earlier work
[1] = test system: freshly isolated human erythrocytes (hRBCs); experiment: Hemolysis (hemoglobin release assay); type: cell-based; conditions: 4% hRBCs, 1.5 h of incubation
Procedure: Hemolytic activity was determined using freshly isolated human erythrocytes (hRBCs) according to a previously published method. Isotonic phosphate buffer (PBS) and 0.1% Triton X-100 were used as controls for the absence of lysis and complete disintegration of hRBCs, respectively.

[2] = test system: human peripheral blood mononuclear cells (PBMC); experiment: Cytotoxicity, resazurin assay; type: cell-based; conditions: RPMI-1640 + 10% FBS, 24 h of incubation
Procedure: The cytotoxic effect of the peptides was tested on human peripheral blood mononuclear cells (PBMC) using the resazurin assay. To perform the analysis, double serial dilutions of the studied peptides were performed in RPMI-1640 nutrient medium supplemented with 10% FBS in sterile 96-well flat-bottom polystyrene microplates (Nest, Wuxi, Jiangsu, China). Next, an equal volume of RPMI medium containing a suspension of freshly isolated PBMC was added to the peptide solution to a total volume of 100 μL and a cell concentration of 5 × 10^4 per well. The plates were incubated for 20 h in a CO2 incubator (5% CO2, 37 °C) and then 5 µL of resazurin solution was added at a concentration of 0.1 mg/mL, after which the incubation was continued for 4 h. The fluorescence of the formed resorufin was measured using an AF2200 microplate reader (Eppendorf, Germany) using the following channel: λExc = 535 nm; λem = 595 nm. The fluorescence signal in the wells containing cells cultured without peptides was taken as a 100% cell viability. Wells containing no cells were used as a negative control. Experimental data were obtained in two independent experiments performed in triplicate.

Stability in serum = type: in vitro ADME, human; conditions: 37 °C
Procedure: The serum stability of DsGom was determined in 25% fresh human serum in PBS (pH 7.4), as described previously. Briefly, 20 μL of aqueous peptide stock solution (5 mg/mL) was added to 480 μL of serum solution and incubated for 0, 2, 8, and 24 h at 37 °C. After incubation, serum proteins were selectively precipitated from the mixture by adding 10% TFA in the presence of 3.75 M of urea. Subsequently, the samples were stored at 0 °C for 30 min and centrifuged at 30,000× g for 10 min. Equal volumes of supernatants after serum protein precipitation were analyzed by analytical HPLC (Symmetry 300 C18 column, Waters, Milford, MA, USA) and MALDI-TOF MS. The amount of the intact peptide was estimated from the corresponding peak area on the HPLC chromatogram. For each peptide, two independent experiments were performed in triplicate. The comparison of the results and statistical processing were performed using GraphPad Prism 6.0 (GraphPad Software, Boston, MA, USA).

[3] = 25% fresh human serum in PBS (pH 7.4); conditions: 37 °C, up to 24 h

Compound: ZCRRLCYKQRCVTYCRGR
- not cleaved (serum): quite stable in the presence of serum enzymes

Compound: CC(C)C[C@@H]1NC(=O)[C@H](CCCNC(=N)N)NC(=O)[C@H](CCCNC(=N)N)NC(=O)[C@@H](NC(=O)[C@@H]2CCC(=O)N2)CSSC[C@@H](C(=O)N[C@@H](CO)C(=O)NCC(=O)N[C@@H](CCCNC(=N)N)C(=O)O)NC(=O)[C@H](Cc2ccc(O)cc2)NC(=O)[C@H]([C@@H](C)O)NC(=O)[C@H](CC(C)C)NC(=O)[C@@H]2CSSC[C@H](NC1=O)C(=O)N[C@@H](Cc1ccccc1)C(=O)N[C@@H](CCCNC(=N)N)C(=O)N[C@@H](CC(N)=O)C(=O)N[C@@H](CCCNC(=N)N)C(=O)N2 [Gom-2] ([pGlu]CRRLCFRNRCLTYCSGR-OH; disulfide 2-15, 6-11)
- hemolytic activity (in words) ([1]; compared to gomesin): significantly higher grade of hemolytic activity

Compound: CC(C)[C@@H]1NC(=O)[C@@H]2CSSC[C@H](NC(=O)[C@H](C(C)C)NC(=O)[C@H](CCCNC(=N)N)NC(=O)[C@H](CCCNC(=N)N)NC(=O)[C@@H](NC(=O)[C@@H](N)CCCNC(=N)N)CSSC[C@@H](C(=O)O)NC(=O)[C@H](Cc3ccc(O)cc3)NC(=O)[C@H](CCC(N)=O)NC1=O)C(=O)N[C@@H](Cc1ccc(O)cc1)C(=O)N[C@@H](CCCCN)C(=O)N[C@@H](CCCCN)C(=O)N[C@@H](Cc1c[nH]cn1)C(=O)N2 [DS5] (H-RCRRVCYKKHCVQYC-OH; disulfide 2-15, 6-11)
- cytotoxic effects on PBMC (in words) [2]: significantly enhanced cytotoxic effects on PBMC

Compound: CC(C)[C@@H]1NC(=O)[C@@H]2CSSC[C@H](NC(=O)[C@H](C(C)C)NC(=O)[C@H](CCCNC(=N)N)NC(=O)[C@H](Cc3c[nH]cn3)NC(=O)[C@@H](NC(=O)[C@@H](N)CCCNC(=N)N)CSSC[C@@H](C(=O)O)NC(=O)[C@H](Cc3ccc(O)cc3)NC(=O)[C@H](CCC(N)=O)NC1=O)C(=O)N[C@@H](Cc1ccc(O)cc1)C(=O)N[C@@H](Cc1c[nH]cn1)C(=O)N[C@@H](CCCCN)C(=O)N[C@@H](Cc1c[nH]cn1)C(=O)N2 [DsGom] (H-RCHRVCYHKHCVQYC-OH; disulfide 2-15, 6-11)
- remaining at 24 h, 0.2 mg/mL (Stability in serum; 25% fresh human serum in PBS (pH 7.4), 20 μL of 5 mg/mL stock in 480 μL, TFA/urea precipitation, HPLC peak area (0 h = 100%), two independent experiments in triplicate, read-out: initial amount of peptide remaining intact): ≥ 90%
- percentage of the form without the N-terminal arginine residue in the main peak (Stability in serum; 25% human serum in PBS, 24 h, MALDI MS of the HPLC fraction): < 10%
- grade of hemolysis ([1]; 128 µM peptide, 0.1% Triton X-100 = complete lysis, two independent experiments): ~ 1%

Compound: CC(C)[C@@H]1NC(=O)[C@@H]2CSSC[C@H](NC(=O)[C@H](C(C)C)NC(=O)[C@H](CCCNC(=N)N)NC(=O)[C@H](CCCNC(=N)N)NC(=O)[C@@H](NC(=O)[C@@H](N)CCCNC(=N)N)CSSC[C@@H](C(=O)O)NC(=O)[C@H](Cc3ccc(O)cc3)NC(=O)[C@H](CCC(N)=O)NC1=O)C(=O)N[C@@H](Cc1ccc(O)cc1)C(=O)N[C@@H](CCCCN)C(=O)N[C@@H](CCCCN)C(=O)N[C@@H](CCCNC(=N)N)C(=O)N2 [DS7] (H-RCRRVCYKKRCVQYC-OH; disulfide 2-15, 6-11)
- cytotoxic effects on PBMC (in words) [2]: significantly enhanced cytotoxic effects on PBMC

- cleaved bond [3]: Arg1-C2, minor, 8 h
Compound: RCHRVCYHKHCVQYC
